Results as given in ChEMBL document CHEMBL1134888, “Preliminary structure-antiangiogenic activity relationships of 4-senecioyloxymethyl-6,7-dimethoxycoumarin” (Bioorg Med Chem Lett, 2002).
In brackets after ≈: the same amount, converted by molar mass.

Legend:
HCT-116 [1] = test: In vitro inhibition of HCT116 (human colon) tumor cell growth.; format: functional, cell-based
B16 [2] = test: In vitro inhibition of B16 (murine melanoma) tumor cell growth.; conditions: Mus musculus
HUVEC (Homo sapiens) [3] = test: Inhibitory percentage in HUVEC tube formation assay at a concentration of 3 ug/mL; Inactive
HUVEC (Homo sapiens) [4] = test: Inhibitory percentage in HUVEC tube formation assay at a concentration of 1 ug/mL (toxic)
HUVEC (Homo sapiens) [5] = test: Inhibitory percentage in HUVEC tube formation assay at a concentration of 3 ug/mL (toxic)
B16 [6] = test: Concentration required for 50% reduction in B16 tumor cell growth (murine melanoma) was measured; NA denotes […]
HCT-116 [7] = test: Concentration required for 50% reduction in HCT116 tumor cell growth (Human colon) was measured; NA denotes […]; format: functional, cell-based

IC50 (HCT-116 [1]) [µg/mL]	IC50 (B16 [2]) [µg/mL]	SMILES	other results
> 10	> 10	CC(C)=CC(=O)OCc1cc(=O)oc2cc3ccccc3cc12	–
> 10	> 10	COc1cc2oc(=O)cc(COC(=O)/C=C/c3ccc(Cl)cc3)c2cc1OC	–
> 10	> 10	C/C=C/C(=O)OCc1cc(=O)oc2cc(OC)c(OC)cc12	inhibition at 3 µg/mL (HUVEC (Homo sapiens) [3]): < 10%
> 10	> 10	COc1cc2oc(=O)cc(COC(=O)/C=C/c3ccc(N)cc3)c2cc1OC	–
5.21 (≈ 13.6 µM)	4.15 (≈ 10.9 µM)	COc1cc2oc(=O)cc(COC(=O)/C=C/c3ccc(O)cc3)c2cc1OC	–
2.43	1.27	Br.COc1ccc(/C=C/C(=O)OCc2cc(=O)oc3cc(OC)c(OC)cc23)cn1	–
> 10	> 10	COc1cc2oc(=O)cc(COC(=O)/C=C/c3ccc(OCCN(C)C)cc3)c2cc1OC.Cl	–
> 10	> 10	COc1cc2oc(=O)cc(COC(=O)/C=C/c3ccccc3)c2cc1OC	–
> 10	> 10	CC(C)=CC(=O)OCc1cc(=O)oc2ccc(Cl)cc12	–
> 10	> 10	COc1ccc(/C=C/C(=O)OCc2cc(O)nc3cc(OC)c(OC)cc23)cc1	–
> 10	> 10	COc1ccc2oc(=O)cc(COC(=O)C=C(C)C)c2c1	inhibition at 3 µg/mL (HUVEC (Homo sapiens) [3]): < 10%
> 10	> 10	C=CC(=O)OCc1cc(=O)oc2cc(OC)c(OC)cc12	inhibition at 3 µg/mL (HUVEC (Homo sapiens) [3]): < 10%
> 10	> 10	COc1cc2oc(=O)cc(COC(=O)C=C(C)C)c2cc1OC	–
> 10	> 10	COc1ccc2c(COC(=O)C=C(C)C)cc(=O)oc2c1	inhibition at 3 µg/mL (HUVEC (Homo sapiens) [3]): < 10%
1.02 (≈ 2.57 µM)	0.96 (≈ 2.42 µM)	COc1ccc(/C=C/C(=O)OCc2cc(=O)oc3cc(OC)c(OC)cc23)cc1	inhibition at 1 µg/mL (HUVEC (Homo sapiens) [4]): 100%
> 10	> 10	CC(C)=CC(=O)OCc1cc(=O)oc2cc3c(cc12)OCO3	–
3.41 (≈ 8.27 µM)	3 (≈ 7.27 µM)	COc1ccc(/C=C/C(=O)OCc2cc(=O)oc3cc(OC)c(OC)cc23)cc1O	inhibition at 3 µg/mL (HUVEC (Homo sapiens) [5]): 35.5%
0.11 (≈ 0.202 µM)	0.09 (≈ 0.166 µM)	COc1cccc2c1C(=O)c1c(O)c3c(c(O)c1C2=O)C[C@@](O)(C(=O)CO)C[C@@H]3O[C@H]1C[C@H](N)[C@H](O)[C@H](C)O1 [DOXORUBICIN]	–
–	–	Cc1ccc(C(=O)Nc2ccc(S(=O)(=O)O)c3cc(S(=O)(=O)O)cc(S(=O)(=O)O)c23)cc1NC(=O)c1cccc(NC(=O)Nc2cccc(C(=O)Nc3cc(C(=O)Nc4ccc(S(=O)(=O)O)c5cc(S(=O)(=O)O)cc(S(=O)(=O)O)c45)ccc3C)c2)c1 [SURAMIN]	IC50 (B16 [6]): Not Active; IC50 (HCT-116 [7]): Not Active

SMILES	IC50 (HCT-116 [1]) [µg/mL]	IC50 (B16 [2]) [µg/mL]	other results
COc1cc2oc(=O)cc(COC(=O)/C=C/c3cc(OC)c(OC)c(OC)c3)c2cc1OC	8.31 (≈ 18.2 µM)	6.74 (≈ 14.8 µM)	–
